We go through one compound from BindingDB's records for doi:10.1016/j.ejmech.2023.115129 (n/a, 2023).

The assay concerns the target Replicase polyprotein 1ab (Severe acute respiratory syndrome coronavirus 2, UniProt P0DTD1). The assay can be described thus: Inhibition of full-length recombinant SARS-CoV-2 3CL protease expressed in Escherichia coli BL21 (DE3) cells using fluorogenic MCA-AVLQSGFR-Lys (Dnp)-Lys-NH2 substrate preincubated for 10 mins followed by substrate addition measured for 3.5 mins by FRET assay.

A word on the IC50: it is the midpoint of a concentration-inhibition curve. On to `C/N=c1\nc(-c2ccc(OC)c(OC)c2)n(-c2ccc(F)cc2)s1`, for which the half-inhibitory concentration (IC50) is 252 nM.
